Like-named read-outs stand apart in the source and are kept apart here.
System: HBV replication in HepG2.2.15 cells
Assay: Anti-HBV activity in vitro in HepG2.2.15 cells (extracellular HBV DNA by qPCR)
Format: cell-based
Conditions: read-out: EC50
Text: HepG2.2.15 and HepDE19 are stably-transfected cell lines containing the HBV genome. Both cell lines are derived from the hepatoblastoma cell line Hep G2 (American Type Culture Collection, ATCC® HB-8065™) by the published procedures described in references: M A Selles et al. Proc. Natl. Acad. Sci. USA 1987, 84, 1005-1009 and H Guo et al. Journal of Virology 2007, 81, 12472-12484, respectively. Both cell lines were maintained in Dulbecco's modified Eagle's medium (DMEM)-F12 medium supplemented with 10% fetal bovine serum, 100 U/mL penicillin, 100 μg/mL streptomycin, and 0.5 mg/mL of G418.
While HepG2.2.15 cells constitutively support HBV replication and production of virus particles, HepDE19 cells are inducible by tetracycline. Addition of 1 μg/mL tetracycline in culture medium suppresses HBV replication in HepDE19 cells, whereas switching to tetracycline-free medium resumes this process.
HepG2.2.15 cells were seeded into 96-well plates (3×10^4 cells in 100 μL media per well) and incubated overnight at 37° C. The test compounds were serially half-log diluted in DMSO, then diluted 100 times in culture media. 100 μL diluted compounds were added into the plates to reach 0.5% final concentration of DMSO in every well. Five days after compound treatment, culture supernatant was collected for further analysis.
For quantitative PCR detection of extracellular HBV DNA, 100 μL culture supernatant was collected and processed in MagNA Pure 96 Nucleic Acid Purification System (Roche Applied Science) for viral DNA extraction. The extracted samples were subjected to HBV DNA quantification by qPCR. The effective compound concentration at which HBV replication is inhibited by 50% (EC50) was determined.
The Examples were tested in the above assays as described herein and found to have EC50<1 μM in HepG2.2.15 assay.

[1] = Hepatitis B virus, HepG2.2.15, Anti-HBV activity in HepG2.2.15 cells

COC(=O)C1=C(CN2C3CNC(=O)C2COC3)NC(c2nccs2)=N[C@H]1c1ccc(F)cc1Cl (stereo partly drawn) [Example 133, Methyl (4R)-4-(2-chloro-4-fluoro-phenyl)-6-[(6-oxo-3-oxa-7,9-diazabicyclo[3.3.1]nonan-9-yl)methyl]-2-thiazol-2-yl-1,4-dihydropyrimidine-5-carboxylate]
EC50 [1]: 34 nM

COC(=O)C1=C(CN2C3COCC2CC(O)C3)NC(c2nccs2)=N[C@H]1c1ccc(F)cc1Cl (stereo partly drawn) [Example 9, (R)-4-(2-Chloro-4-fluoro-phenyl)-6-(7-hydroxy-3-oxa-9-aza-bicyclo[3.3.1]non-9-ylmethyl)-2-thiazol-2-yl-1,4-dihydro-pyrimidine-5-carboxylic acid methyl ester]
EC50 (Anti-HBV activity in HepG2.2.15 cells): 14 nM

CCOC(=O)CC1(O)CC2COCC(C1O)N2CC1=C(C(=O)OC)[C@H](c2ccc(F)cc2Cl)N=C(c2nccs2)N1 (stereo partly drawn) [Example 138, Methyl (4R)-4-(2-chloro-4-fluoro-phenyl)-6-[[7-(2-ethoxy-2-oxo-ethyl)-6,7-dihydroxy-3-oxa-9-azabicyclo[3.3.1]nonan-9-yl]methyl]-2-thiazol-2-yl-1,4-dihydropyrimidine-5-carboxylate]
EC50 [1]: 58.2 nM

CNS(=O)(=O)N1CC2COCC(C1)N2CC1=C(C(=O)OC)[C@H](c2ccc(F)cc2Cl)N=C(c2nccs2)N1 [Example 16, (R)-4-(2-Chloro-4-fluoro-phenyl)-6-(7-methylsulfamoyl-3-oxa-7,9-diaza-bicyclo[3.3.1]non-9-ylmethyl)-2-thiazol-2-yl-1,4-dihydro-pyrimidine-5-carboxylic acid methyl ester]
EC50 [1]: 15 nM

COC(=O)C1=C(CN2C3COCC2CC(C(=O)OC)C3)NC(c2nccs2)=N[C@H]1c1ccc(F)cc1Br (stereo partly drawn) [Example 4, 9-[(R)-6-(2-Bromo-4-fluoro-phenyl)-5-methoxycarbonyl-2-thiazol-2-yl-3,6-dihydro-pyrimidin-4-ylmethyl]-3-oxa-9-aza-bicyclo[3.3.1]nonane-7-carboxylic acid methyl ester]
EC50 [1]: 39 nM

COC(=O)C1=C(CN2C3CC(F)(F)C2C[C@](O)(CC(=O)O)C3)NC(c2nccs2)=N[C@H]1c1cccc(F)c1Cl (stereo partly drawn) [Example 121, 2-[(3S)-8-[[(4R)-4-(2-chloro-3-fluoro-phenyl)-5-methoxycarbonyl-2-thiazol-2-yl-1,4-dihydropyrimidin-6-yl]methyl]-6,6-difluoro-3-hydroxy-8-azabicyclo[3.2.1]octan-3-yl]acetic acid]
EC50 [1]: 33 nM

COC(=O)C1=C(CN2CC3CC2CC3(F)F)NC(c2nccs2)=N[C@H]1c1ccc(F)cc1Cl (stereo partly drawn) [Example 143, Methyl (4R)-4-(2-chloro-4-fluoro-phenyl)-6-[(5,5-difluoro-2-azabicyclo[2.2.1]heptan-2-yl)methyl]-2-thiazol-2-yl-1,4-dihydropyrimidine-5-carboxylate]
EC50 [1]: 41 nM

COC(=O)C1=C(CN2C3COCC2c2c(C)n[nH]c2C3)NC(c2nccs2)=N[C@H]1c1ccc(F)cc1Cl (stereo partly drawn) [Example 32, (R)-4-(2-Chloro-4-fluoro-phenyl)-6-(3-methyl-10-oxa-4,5,12-triaza-tricyclo[6.3.1.0*2,6*]dodeca-2(6),3-dien-12-ylmethyl)-2-thiazol-2-yl-1,4-dihydro-pyrimidine-5-carboxylic acid methyl ester]
EC50 [1]: 32 nM

COC(=O)C1=C(CN2C3COCC2C(F)c2oncc23)NC(c2nccs2)=N[C@H]1c1ccc(F)cc1Cl (stereo partly drawn) [Example 106, (4R)-4-(2-Chloro-4-fluoro-phenyl)-6-(7-fluoro-5,10-dioxa-4,12-diaza-tricyclo[6.3.1.0*2,6*]dodeca-2(6),3-dien-12-ylmethyl)-2-thiazol-2-yl-1,4-dihydropyrimidine-5-carrboxylic acid methyl ester]
EC50 [1]: 8.5 nM

COC(=O)C1=C(CN2C3CC(F)(F)C2C[C@](O)(CC(=O)O)C3)NC(c2nccs2)=N[C@H]1c1ccc(F)c(F)c1C (stereo partly drawn) [Example 119, 2-[(3S)-8-[[(4S)-4-(3,4-difluoro-2-methyl-phenyl)-5-methoxycarbonyl-2-thiazol-2-yl-1,4-dihydropyrimidin-6-yl]methyl]-6,6-difluoro-3-hydroxy-8-azabicyclo[3.2.1]octan-3-yl]acetic acid]
EC50 [1]: 21.3 nM

COC(=O)C1=C(CN2[C@H]3C[C@H](CC(=O)O)C[C@@H]2C(F)(F)C3)NC(c2nccs2)=N[C@H]1c1ccc(F)c(F)c1C [Example 112, 2-[(1S,3S,5R)-8-[[(4S)-4-(3,4-difluoro-2-methyl-phenyl)-5-methoxycarbonyl-2-thiazol-2-yl-1,4-dihydropyrimidin-6-yl]methyl]-6,6-difluoro-8-azabicyclo[3.2.1]octan-3-yl]acetic acid]
EC50 [1]: 35.8 nM

COC(=O)C1=C(CN2[C@@H]3COC[C@H]2CC(OCC(=O)O)C3)NC(c2nccs2)=N[C@H]1c1ccc(F)c(F)c1 (stereo partly drawn) [Example 47, 2-[[(1R,5S)-9-[[(4S)-4-(3,4-difluorophenyl)-5-methoxycarbonyl-2-thiazol-2-yl-1,4-dihydropyrimidin-6-yl]methyl]-3-oxa-9-azabicyclo[3.3.1]nonan-7-yl]oxy]acetic acid]
EC50 [1]: 295 nM

COC(=O)C1=C(CN2C3CC(F)(F)C2C[C@@H]3C(=O)O)NC(c2nccs2)=N[C@H]1c1ccc(F)cc1Cl (stereo partly drawn) [Example 151, (5S)-7-[[(4R)-4-(2-chloro-4-fluoro-phenyl)-5-methoxycarbonyl-2-thiazol-2-yl-1,4-dihydropyrimidin-6-yl]methyl]-2,2-difluoro-7-azabicyclo[2.2.1]heptane-5-carboxylic acid]
EC50 [1]: 29.5 nM

COC(=O)C1=C(CN2C3COCC2CC(CC(=O)O)C3)NC(c2nccs2)=NC1c1ccc(F)c(F)c1 (stereo not shown) [Example 27, 6-(7-Carboxymethyl-3-oxa-9-aza-bicyclo[3.3.1]non-9-ylmethyl)-4-(3,4-difluoro-phenyl)-2-thiazol-2-yl-1,4-dihydro-pyrimidine-5-carboxylic acid methyl ester]
EC50 [1]: 254 nM

CCOC(=O)C(C)(C)N1CC2COCC(C1)N2CC1=C(C(=O)OC)[C@H](c2ccc(F)cc2Cl)N=C(c2nccs2)N1 [Example 20, (R)-4-(2-Chloro-4-fluoro-phenyl)-6-[7-(1-ethoxycarbonyl-1-methyl-ethyl)-3-oxa-7,9-diaza-bicyclo[3.3.1]non-9-ylmethyl]-2-thiazol-2-yl-1,4-dihydro-pyrimidine-5-carboxylic acid methyl ester]
EC50 [1]: 35 nM

COC(=O)C1=C(CN2C3COCC2CC(C(O)C(=O)OC)C3)NC(c2nccs2)=N[C@H]1c1ccc(F)cc1Cl (stereo partly drawn) [Example 30, (R)-4-(2-Chloro-4-fluoro-phenyl)-6-[7-(hydroxy-methoxycarbonyl-methyl)-3-oxa-9-aza-bicyclo[3.3.1]non-9-ylmethyl]-2-thiazol-2-yl-1,4-dihydro-pyrimidine-5-carboxylic acid methyl ester]
EC50 [1]: 11 nM

COC(=O)C1=C(CN2CC3CC2C(F)(F)C3)NC(c2nccs2)=N[C@H]1c1ccc(F)cc1Cl (stereo partly drawn) [Example 144, Methyl (4R)-4-(2-chloro-4-fluoro-phenyl)-6-[(5,5-difluoro-3-azabicyclo[2.2.1]heptan-3-yl)methyl]-2-thiazol-2-yl-1,4-dihydropyrimidine-5-carboxylate]
EC50 [1]: 94 nM

CCOC(=O)C1=C(CN2C3COCC2CC(N)(C(=O)O)C3)NC(c2nccs2)=N[C@H]1c1cccc(F)c1F (stereo partly drawn) [Example 140, 7-amino-9-[[(4R)-4-(2,3-difluorophenyl)-5-ethoxycarbonyl-2-thiazol-2-yl-1,4-dihydropyrimidin-6-yl]methyl]-3-oxa-9-azabicyclo[3.3.1]nonane-7-carboxylic acid]
EC50 [1]: 103 nM

COC(=O)C1=C(CN2C3COCC2C(O)C3)NC(c2nccs2)=N[C@H]1c1ccc(F)cc1Cl (mixture of isomers) [Example 49, Methyl (4R)-4-(2-chloro-4-fluoro-phenyl)-6-[(6-hydroxy-3-oxa-8-azabicyclo[3.2.1]octan-8-yl)methyl]-2-thiazol-2-yl-1,4-dihydropyrimidine-5-carboxylate]
EC50 [1]: 17.2 nM

COC(=O)C1=C(CN2C3COCC2C(F)C3)NC(c2nccs2)=N[C@H]1c1ccc(F)cc1Cl (stereo partly drawn) [Example 51, Methyl (4R)-4-(2-chloro-4-fluoro-phenyl)-6-[(6-fluoro-3-oxa-8-azabicyclo[3.2.1]octan-8-yl)methyl]-2-thiazol-2-yl-1,4-dihydropyrimidine-5-carboxylate]
EC50 [1]: 14.9 nM

COC(=O)C1=C(CN2CC3CCC(C2)O3)NC(c2nccs2)=N[C@H]1c1ccc(F)cc1Cl [Example 142, Methyl (4R)-4-(2-chloro-4-fluoro-phenyl)-6-(8-oxa-3-azabicyclo[3.2.1]octan-3-ylmethyl)-2-thiazol-2-yl-1,4-dihydropyrimidine-5-carboxylate]
EC50 [1]: 130 nM

CCOC(=O)C1=C(CN2C3COCC2CC(N)(C(=O)O)C3)NC(c2nccs2)=N[C@H]1c1ccc(F)cc1Br (stereo partly drawn) [Example 141, 7-amino-9-[[(4R)-4-(2-bromo-4-fluoro-phenyl)-5-ethoxycarbonyl-2-thiazol-2-yl-1,4-dihydropyrimidin-6-yl]methyl]-3-oxa-9-azabicyclo[3.3.1]nonane-7-carboxylic acid]
EC50 [1]: 271 nM

Source: patent publication US9266904B2, “6-bridged heteroaryldihydropyrimidines for the treatment and prophylaxis of hepatitis B virus infection” (priority 2013, dated 2016)
